Data on eight compounds can be found in patent US20220220128A1, “HETEROCYCLIC COMPOUNDS AS KINASE INHIBITORS, COMPOSITIONS COMPRISING THE HETEROCYCLIC COMPOUND, AND METHODS OF USE THEREOF” (JS Innopharm (Shanghai) Ltd, priority 2019, published 2022).

The target of one experiment is T1, human RET kinase (Homo sapiens, UniProt P07949).
T1 construct: purchased Carna 08-159
In words: RET Kinase Assay (LanthaScreen TR-FRET enzymatic assay). In kind it is biochemical. The note with it: 7 nM RET, 23 μM ATP. The method in brief: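 TR-FRET enzymatic read-out using 23 μM ATP, 3 μM FAM-P2 substrate and 7 nM human RET, after 15-min compound pretreatment at room temperature and a 1 h reaction at 28° C in HEPES pH 7.5 buffer. Percent of DMSO control fitted to nonlinear sigmoid curves for IC50.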
A general note: Time-resolved FRET reads energy transfer from a long-lived donor to a nearby acceptor.

For another experiment, the system named is TT cells. Nature of the experiment: TT Cell Proliferation Assay (WST-8, 8 days). In kind it is cell-based. The note with it: Homo sapiens, TT, 192 h, growth inhibition in TT cells, read-out: TT Cellular Activity. The method in brief:
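IC50 was derived from absorbance at 450 nm after 5 h with WST-8, following 8 days' incubation at 37 °C. Final compound levels spanned 0.0005–5 μM in 0.5% DMSO. TT cells were seeded at 6,000 per well in 10% FBS RPMI-1640 and left to attach for 24 h beforehand.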
In general terms: Formazan colour is commonly taken as a measure of viable cells.

The next experiment has as its target T2, BAF3-KIF5B-RET cells (Homo sapiens, UniProt P07949).
T2 construct: fused on or other part: P33176 (Kinesin-1 heavy chain)
In words: BAF3-KIF5B-RET Cell proliferation assay (CellTiter-Glo, 72 hours). In kind it is cell-based. The settings on record: growth inhibition, read-out: BA/F3-KIF5B-RET Cellular activity. The method in brief: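 Cells seeded at 2,000/well in RPMI-1640 with 10% FBS and left 24 h at 37 °C, then exposed 72 h to nine compound levels (final 1 μM down to 0.00015 μM, 0.1% DMSO). CellTiter-Glo luminescence gave viability versus DMSO wells, from which IC50 was fitted.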
For orientation: ATP-based viability assays read luminescence as a measure of living cells.

Another experiment has as its target T3, human KDR kinase (Homo sapiens, UniProt P35968).
T3 construct: purchased Carna 08-191
Nature of the experiment: KDR Kinase Assay (LanthaScreen TR-FRET enzymatic assay). The note with it: 1.2 nM KDR, 92 μM ATP. It counts as biochemical. A digest of the protocol:
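TR-FRET enzymatic format: after 15-min room-temperature compound pretreatment, 1.2 nM human KDR phosphorylated 3 μM FAM-P22 with 92 μM ATP (HEPES pH 7.5, 28° C., one hour). Reactions were quenched with EDTA buffer. IC50 came from nonlinear sigmoid fits of percent-of-vehicle signal ratios.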

T3 sequence (P35968 20-1356): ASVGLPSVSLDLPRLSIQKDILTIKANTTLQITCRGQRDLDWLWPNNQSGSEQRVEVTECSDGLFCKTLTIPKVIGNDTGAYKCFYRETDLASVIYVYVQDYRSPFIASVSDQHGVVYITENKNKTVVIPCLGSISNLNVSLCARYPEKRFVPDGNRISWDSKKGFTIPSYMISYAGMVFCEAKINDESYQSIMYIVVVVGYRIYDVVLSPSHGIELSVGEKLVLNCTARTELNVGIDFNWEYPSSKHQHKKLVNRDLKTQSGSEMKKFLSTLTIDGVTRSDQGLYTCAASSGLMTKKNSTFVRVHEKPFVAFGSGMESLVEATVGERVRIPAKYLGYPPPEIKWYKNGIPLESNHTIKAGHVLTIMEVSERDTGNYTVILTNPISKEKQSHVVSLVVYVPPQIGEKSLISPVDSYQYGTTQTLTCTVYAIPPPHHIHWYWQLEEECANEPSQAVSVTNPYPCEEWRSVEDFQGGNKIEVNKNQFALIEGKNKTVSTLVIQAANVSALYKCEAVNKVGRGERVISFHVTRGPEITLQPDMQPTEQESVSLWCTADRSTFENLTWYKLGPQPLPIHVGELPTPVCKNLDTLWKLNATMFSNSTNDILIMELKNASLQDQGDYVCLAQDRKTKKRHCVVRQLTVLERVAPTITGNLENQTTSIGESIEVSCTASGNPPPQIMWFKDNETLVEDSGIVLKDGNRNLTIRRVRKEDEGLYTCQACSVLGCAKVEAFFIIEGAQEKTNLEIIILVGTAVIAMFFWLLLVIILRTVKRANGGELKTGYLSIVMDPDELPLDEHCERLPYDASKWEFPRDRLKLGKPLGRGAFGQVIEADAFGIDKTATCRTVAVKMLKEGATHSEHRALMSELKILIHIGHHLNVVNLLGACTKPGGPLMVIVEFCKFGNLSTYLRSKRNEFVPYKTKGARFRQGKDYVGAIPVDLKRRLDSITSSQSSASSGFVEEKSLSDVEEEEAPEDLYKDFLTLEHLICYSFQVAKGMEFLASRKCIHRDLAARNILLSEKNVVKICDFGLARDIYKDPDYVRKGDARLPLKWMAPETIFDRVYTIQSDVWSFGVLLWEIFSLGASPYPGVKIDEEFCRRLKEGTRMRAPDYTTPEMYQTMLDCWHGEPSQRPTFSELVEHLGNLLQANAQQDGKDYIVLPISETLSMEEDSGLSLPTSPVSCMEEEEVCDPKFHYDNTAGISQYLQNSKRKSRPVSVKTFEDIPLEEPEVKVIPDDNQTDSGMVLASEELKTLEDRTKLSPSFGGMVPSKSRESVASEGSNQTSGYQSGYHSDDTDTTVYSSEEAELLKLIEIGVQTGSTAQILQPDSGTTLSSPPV
T2 sequence (P07949 whole entry, change not shown, the tested form may be a part): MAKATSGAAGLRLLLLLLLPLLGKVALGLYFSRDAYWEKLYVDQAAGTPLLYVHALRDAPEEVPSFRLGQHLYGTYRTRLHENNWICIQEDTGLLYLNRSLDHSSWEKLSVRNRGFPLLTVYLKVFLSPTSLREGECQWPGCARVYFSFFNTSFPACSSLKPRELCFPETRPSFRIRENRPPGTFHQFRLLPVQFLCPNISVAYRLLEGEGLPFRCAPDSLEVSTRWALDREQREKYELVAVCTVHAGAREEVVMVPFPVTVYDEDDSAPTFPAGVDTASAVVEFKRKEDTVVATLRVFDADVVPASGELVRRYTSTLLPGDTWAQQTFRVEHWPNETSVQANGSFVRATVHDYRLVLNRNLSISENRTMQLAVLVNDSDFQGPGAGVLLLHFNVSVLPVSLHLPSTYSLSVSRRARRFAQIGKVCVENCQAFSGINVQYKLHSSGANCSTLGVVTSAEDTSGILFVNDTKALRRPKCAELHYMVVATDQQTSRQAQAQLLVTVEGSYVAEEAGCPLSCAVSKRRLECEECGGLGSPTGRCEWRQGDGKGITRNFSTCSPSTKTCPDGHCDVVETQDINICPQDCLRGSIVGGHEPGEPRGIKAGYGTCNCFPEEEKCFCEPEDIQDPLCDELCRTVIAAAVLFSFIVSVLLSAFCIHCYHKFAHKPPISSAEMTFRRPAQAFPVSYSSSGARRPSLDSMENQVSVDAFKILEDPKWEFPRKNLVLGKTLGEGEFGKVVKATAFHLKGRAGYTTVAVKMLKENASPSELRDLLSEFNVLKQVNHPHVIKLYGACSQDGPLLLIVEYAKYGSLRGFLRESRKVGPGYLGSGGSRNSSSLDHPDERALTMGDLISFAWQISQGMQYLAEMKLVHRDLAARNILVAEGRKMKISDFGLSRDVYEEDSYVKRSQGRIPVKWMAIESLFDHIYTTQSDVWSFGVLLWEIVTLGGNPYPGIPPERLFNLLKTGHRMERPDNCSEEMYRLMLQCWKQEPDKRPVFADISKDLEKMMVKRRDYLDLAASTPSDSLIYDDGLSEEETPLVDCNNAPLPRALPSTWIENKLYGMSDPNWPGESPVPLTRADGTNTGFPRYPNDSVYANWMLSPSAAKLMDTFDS
T1 sequence (P07949 29-1114): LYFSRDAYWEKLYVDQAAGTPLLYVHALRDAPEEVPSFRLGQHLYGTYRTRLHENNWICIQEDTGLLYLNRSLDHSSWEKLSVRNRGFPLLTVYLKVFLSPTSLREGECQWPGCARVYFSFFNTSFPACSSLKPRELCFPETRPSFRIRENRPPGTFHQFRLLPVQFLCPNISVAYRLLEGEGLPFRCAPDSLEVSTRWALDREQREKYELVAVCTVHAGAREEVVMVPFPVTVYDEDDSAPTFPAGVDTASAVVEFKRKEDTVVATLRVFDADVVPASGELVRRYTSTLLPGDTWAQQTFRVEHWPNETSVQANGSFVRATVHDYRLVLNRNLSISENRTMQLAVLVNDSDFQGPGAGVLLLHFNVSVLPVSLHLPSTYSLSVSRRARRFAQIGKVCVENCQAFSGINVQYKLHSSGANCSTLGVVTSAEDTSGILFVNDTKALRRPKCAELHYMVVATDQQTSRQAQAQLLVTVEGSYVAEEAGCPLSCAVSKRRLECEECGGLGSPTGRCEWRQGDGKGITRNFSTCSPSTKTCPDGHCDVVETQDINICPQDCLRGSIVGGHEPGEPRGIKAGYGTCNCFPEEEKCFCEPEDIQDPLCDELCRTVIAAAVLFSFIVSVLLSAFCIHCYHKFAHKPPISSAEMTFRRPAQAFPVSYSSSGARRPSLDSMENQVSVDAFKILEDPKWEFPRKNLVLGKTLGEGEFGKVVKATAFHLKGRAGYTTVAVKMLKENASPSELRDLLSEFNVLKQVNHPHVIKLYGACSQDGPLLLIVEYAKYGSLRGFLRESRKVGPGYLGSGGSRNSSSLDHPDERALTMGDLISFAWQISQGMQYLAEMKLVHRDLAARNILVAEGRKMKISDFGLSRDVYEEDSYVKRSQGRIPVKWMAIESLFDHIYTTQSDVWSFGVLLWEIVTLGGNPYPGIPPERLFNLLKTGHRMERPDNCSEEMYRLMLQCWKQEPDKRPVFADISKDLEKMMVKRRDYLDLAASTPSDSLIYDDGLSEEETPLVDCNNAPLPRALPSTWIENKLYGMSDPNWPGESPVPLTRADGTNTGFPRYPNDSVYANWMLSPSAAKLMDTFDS

Regarding `Cn1cc(-c2cc(-c3ccc(N4C[C@@H]5[C@H](C4)[C@H]5NS(=O)(=O)c4c(F)cccc4Cl)nc3)c3c(C#N)cnn3c2)cn1` [Example 46, 2-chloro-N-((1R,5S,6s)-3-(5-(3-cyano-6-(1-methyl-1H-pyrazol-4-yl)pyrazolo[1,5-a]pyridin-4-yl)pyridin-2-yl)-3-azabicyclo[3.1.0]hexan-6-yl)-6-fluorobenzene-sulfonamide], the IC50 against human RET kinase, in the experiment with TT cells and against human KDR kinase was ≤ 10 nM in each case. Moreover, the GI50 on BAF3-KIF5B-RET cells is ≤ 10 nM.

Take `C[C@@]1(NC(=O)c2ncccc2Cl)C[C@H]2CN(c3ccc(-c4cc(OCC5CNCCO5)cn5ncc(C#N)c45)cn3)C[C@H]2C1` (some centres unmarked) [Example 53]: the IC50 is ≤ 10 nM on human RET kinase, ≤ 10 nM in the experiment on TT cells and 10 to 50 nM against human KDR kinase. Also, on BAF3-KIF5B-RET cells, the GI50 is ≤ 10 nM.

With `CC(C)(O)COc1cc(-c2ccc(N3C[C@@H]4C[C@@](C)(NC(=O)c5ncccc5Cl)C[C@@H]4C3)nc2)c2c(C#N)cnn2c1` [Example 54, 3-chloro-N-((3aR,5s,6aS)-2-(5-(3-cyano-6-(2-hydroxy-2-methylpropoxy)pyrazolo[1,5-a]pyridin-4-yl)pyridin-2-yl)-5-methyloctahydro-cyclopenta[c]pyrrol-5-yl)picolinamide], the results for the IC50 at human RET kinase, in the experiment on TT cells and at human KDR kinase were ≤ 10 nM, 10 to 50 nM and > 100 nM, respectively. On BAF3-KIF5B-RET cells, the GI50 lay in the range of 10 to 50 nM.

With `Cn1cc(-c2cc(-c3ccc(N4C[C@@H]5C[C@@](C)(NC(=O)c6ncccc6Cl)C[C@@H]5C4)nc3)c3c(C#N)cnn3c2)cn1` [Example 55, 3-chloro-N-((3aR,5s,6aS)-2-(5-(3-cyano-6-(1-methyl-1H-pyrazol-4-yl)pyrazolo[1,5-a]pyridin-4-yl)pyridin-2-yl)-5-methyloctahydro-cyclopenta[c]pyrrol-5-yl)picolinamide], the IC50 against human RET kinase, in the experiment with TT cells and on human KDR kinase was ≤ 10 nM in each case. Besides, the GI50 on BAF3-KIF5B-RET cells was ≤ 10 nM.

Take `Cn1ccc(-c2cc(-c3ccc(N4C[C@@H]5C[C@@](C)(NC(=O)c6ncccc6Cl)C[C@@H]5C4)nc3)c3c(C#N)cnn3c2)n1` [Example 56, 3-chloro-N-((3aR,5s,6aS)-2-(5-(3-cyano-6-(1-methyl-1H-pyrazol-3-yl)pyrazolo[1,5-a]pyridin-4-yl)pyridin-2-yl)-5-methyloctahydro-cyclopenta[c]pyrrol-5-yl)picolinamide]: the IC50 against human RET kinase is ≤ 10 nM; in the experiment with TT cells, ≤ 10 nM; at human KDR kinase, 10 to 50 nM. Further, the GI50 at BAF3-KIF5B-RET cells was ≤ 10 nM.

As for `Cn1cc(-c2cc(-c3cnc(N4C[C@@H]5C[C@@](C)(NC(=O)c6ncccc6Cl)C[C@@H]5C4)cn3)c3c(C#N)cnn3c2)cn1` [Example 61], the IC50 against human RET kinase is ≤ 10 nM; with TT cells it was ≤ 10 nM; on human KDR kinase, 10 to 50 nM. Moreover, the GI50 on BAF3-KIF5B-RET cells is ≤ 10 nM.

`Cn1ccc(-c2cc(-c3cnc(N4C[C@@H]5C[C@@](C)(NC(=O)c6ncccc6Cl)C[C@@H]5C4)cn3)c3c(C#N)cnn3c2)n1` [Example 70, 3-chloro-N-((3aR,5s,6aS)-2-(5-(3-cyano-6-(1-methyl-1H-pyrazol-3-yl)pyrazolo[1,5-a]pyridin-4-yl)pyrazin-2-yl)-5-methyloctahydrocyclopenta[c]pyrrol-5-yl)picolinamide]: the values for the IC50 against human RET kinase, in the experiment on TT cells and at human KDR kinase were ≤ 10 nM, 10 to 50 nM and 10 to 50 nM, respectively. The GI50 at BAF3-KIF5B-RET cells was ≤ 10 nM.

As to `Cn1cc(-c2cc(-c3ccc(N4C[C@@H]5[C@@H](CNC(=O)c6ncccc6Cl)[C@@H]5C4)nc3)c3c(C#N)cnn3c2)cn1` [Example 73, 3-chloro-N-(((1R,5S,6s)-3-(5-(3-cyano-6-(1-methyl-1H-pyrazol-4-yl)pyrazolo[1,5-a]pyridin-4-yl)pyridin-2-yl)-3-azabicyclo[3.1.0]hexan-6-yl)methyl)picolinamide], the IC50 on human RET kinase, in the experiment with TT cells and against human KDR kinase was ≤ 10 nM each time. Further, at BAF3-KIF5B-RET cells, the GI50 is ≤ 10 nM.
